According to patent publication US11116735B2, “Use of substituted benzylideneguanidine derivatives as synergists for polymyxin antibiotics” (GUANGZHOU INSIGHTER BIOTECHNOLOGY CO., LTD., priority 2015, dated 2021):

How the values were obtained:
[1] = system: E. coli 4D-6; assay: MIC by doubling dilution, colistin sulfate-resistant E. coli 4D-6; settings: for In vitro minimum inhibitory concentration (MIC) of the substance alone: E. coli 4D-6, colistin sulfate-resistant, derivatives as hydrochlorides; for In vitro MIC of colistin sulfate in the presence of the substituted benzylideneguanidine derivative: E. coli 4D-6, resistant, culture comprised 20.0 ppm of the derivative (hydrochloride)
Method: (§1) In vitro minimum inhibitory concentrations of colistin sulfate against the strains where the cultures respectively comprised 20.0 ppm of the substituted benzylideneguanidine derivatives were also measured.

[2] = system: E. coli 5W-7; assay: MIC by doubling dilution, colistin sulfate-susceptible E. coli 5W-7; assay type: cell-based, Escherichia coli; settings: for In vitro minimum inhibitory concentration (MIC) of the substance alone: E. coli 5W-7, colistin sulfate-susceptible, derivatives as hydrochlorides; for In vitro MIC of colistin sulfate in the presence of the substituted benzylideneguanidine derivative: E. coli 5W-7, culture comprised 20.0 ppm of the derivative (hydrochloride), colistin sulfate serially diluted
[3] = system: E. coli 2S-19; assay: MIC by doubling dilution, colistin sulfate-susceptible E. coli 2S-19; assay type: cell-based, Escherichia coli; settings: for In vitro minimum inhibitory concentration (MIC) of the substance alone: E. coli 2S-19, colistin sulfate-susceptible, derivatives as hydrochlorides; for In vitro MIC of colistin sulfate in the presence of the substituted benzylideneguanidine derivative: E. coli 2S-19, culture comprised 20.0 ppm of the derivative (hydrochloride), colistin sulfate serially diluted
[4] = system: E. coli 2G-7; assay: MIC by doubling dilution, colistin sulfate-resistant E. coli 2G-7; settings: for In vitro minimum inhibitory concentration (MIC) of the substance alone: E. coli 2G-7, colistin sulfate-resistant, derivatives as hydrochlorides; for In vitro MIC of colistin sulfate in the presence of the substituted benzylideneguanidine derivative: E. coli 2G-7, resistant, culture comprised 20.0 ppm of the derivative (hydrochloride)
Method: as §1

[5] = system: E. coli 3Y-9; assay: MIC by doubling dilution, colistin sulfate-susceptible E. coli 3Y-9; assay type: cell-based, Escherichia coli; settings: for In vitro minimum inhibitory concentration (MIC) of the substance alone: E. coli 3Y-9, colistin sulfate-susceptible, derivatives as hydrochlorides; for In vitro MIC of colistin sulfate in the presence of the substituted benzylideneguanidine derivative: E. coli 3Y-9, culture comprised 20.0 ppm of the derivative (hydrochloride), colistin sulfate serially diluted
[6] = system: E. coli 3B-24; assay: MIC by doubling dilution, colistin sulfate-susceptible E. coli 3B-24; assay type: cell-based, Escherichia coli; settings: for In vitro minimum inhibitory concentration (MIC) of the substance alone: E. coli 3B-24, colistin sulfate-susceptible, derivatives as hydrochlorides; for In vitro MIC of colistin sulfate in the presence of the substituted benzylideneguanidine derivative: E. coli 3B-24, culture comprised 20.0 ppm of the derivative (hydrochloride), colistin sulfate serially diluted
[7] = system: E. coli 5F-1; assay: MIC by doubling dilution, colistin sulfate-resistant E. coli 5F-1; settings: for In vitro minimum inhibitory concentration (MIC) of the substance alone: E. coli 5F-1, colistin sulfate-resistant, derivatives as hydrochlorides; for In vitro MIC of colistin sulfate in the presence of the substituted benzylideneguanidine derivative: E. coli 5F-1, resistant, culture comprised 20.0 ppm of the derivative (hydrochloride)
Method: as §1

[8] = system: E. coli 3H-4; assay: MIC by doubling dilution, colistin sulfate-resistant E. coli 3H-4; settings: for In vitro minimum inhibitory concentration (MIC) of the substance alone: E. coli 3H-4, colistin sulfate-resistant, derivatives as hydrochlorides; for In vitro MIC of colistin sulfate in the presence of the substituted benzylideneguanidine derivative: E. coli 3H-4, resistant, culture comprised 20.0 ppm of the derivative (hydrochloride)
Method: as §1

| SMILES | In vitro minimum inhibitory concentration (MIC) of the substance alone [1] | In vitro MIC of colistin sulfate in the presence of the substituted benzylideneguanidine derivative [1] | In vitro minimum inhibitory concentration (MIC) of the substance alone [2] | In vitro MIC of colistin sulfate in the presence of the substituted benzylideneguanidine derivative [2] | In vitro minimum inhibitory concentration (MIC) of the substance alone [3] | In vitro MIC of colistin sulfate in the presence of the substituted benzylideneguanidine derivative [3] | In vitro minimum inhibitory concentration (MIC) of the substance alone [4] | In vitro MIC of colistin sulfate in the presence of the substituted benzylideneguanidine derivative [4] | In vitro minimum inhibitory concentration (MIC) of the substance alone [5] | In vitro MIC of colistin sulfate in the presence of the substituted benzylideneguanidine derivative [5] | In vitro minimum inhibitory concentration (MIC) of the substance alone [6] | In vitro MIC of colistin sulfate in the presence of the substituted benzylideneguanidine derivative [6] | In vitro minimum inhibitory concentration (MIC) of the substance alone [7] | In vitro MIC of colistin sulfate in the presence of the substituted benzylideneguanidine derivative [7] | In vitro minimum inhibitory concentration (MIC) of the substance alone [8] | In vitro MIC of colistin sulfate in the presence of the substituted benzylideneguanidine derivative [8] |
| --- | --- | --- | --- | --- | --- | --- | --- | --- | --- | --- | --- | --- | --- | --- | --- | --- |
| CCOc1ccc(C=NN=C(N)NN=Cc2ccc(OCC)cc2)cc1 [Compound 2] | >800 ppm | 8.0 ppm | >800 ppm | 1.00 ppm | >800 ppm | 2.00 ppm | >800 ppm | 2.0 ppm | >800 ppm | 2.00 ppm | >800 ppm | 2.00 ppm | >800 ppm | 4.0 ppm | >800 ppm | 2.0 ppm |
| CCSc1ccc(C=NNC(=N)NN=Cc2ccc(SCC)cc2)cc1 [Compound 9] | >800 ppm | 16 ppm | >800 ppm | 0.50 ppm | >800 ppm | 1.00 ppm | >800 ppm | 4 ppm | >800 ppm | 1.00 ppm | >800 ppm | 1.00 ppm | >800 ppm | 8 ppm | >800 ppm | 4 ppm |
| Cc1ccc(C=NN=C(N)NN=Cc2ccc(C)cc2)cc1 [Compound 10] | >800 ppm | 16 ppm | >800 ppm | 0.50 ppm | >800 ppm | 1.00 ppm | >800 ppm | 4 ppm | >800 ppm | 1.00 ppm | >800 ppm | 1.00 ppm | >800 ppm | 8 ppm | >800 ppm | 4 ppm |
| CC(C)c1ccc(C=NNC(=N)NN=Cc2ccc(C(C)C)cc2)cc1 [Compound 11] | >800 ppm | 64 ppm | >800 ppm | 0.50 ppm | >800 ppm | 1.00 ppm | >800 ppm | 16 ppm | >800 ppm | 1.00 ppm | >800 ppm | 2.00 ppm | >800 ppm | 16 ppm | >800 ppm | 16 ppm |
| COC(=O)c1ccc(C=NN=C(N)NN=Cc2ccc(C(=O)OC)cc2)cc1 [Compound 12] | >800 ppm | 16 ppm | >800 ppm | 0.50 ppm | >800 ppm | 1.00 ppm | >800 ppm | 4 ppm | >800 ppm | 1.00 ppm | >800 ppm | 1.00 ppm | >800 ppm | 8 ppm | >800 ppm | 4 ppm |
| N#Cc1ccc(C=NN=C(N)NN=Cc2ccc(C#N)cc2)cc1 [Compound 13] | >800 ppm | 16 ppm | >800 ppm | 0.50 ppm | >800 ppm | 1.00 ppm | >800 ppm | 4 ppm | >800 ppm | 1.00 ppm | >800 ppm | 0.50 ppm | >800 ppm | 8 ppm | >800 ppm | 4 ppm |
| NC(=NN=Cc1ccc(C(F)(F)F)cc1)NN=Cc1ccc(C(F)(F)F)cc1 [Compound 14] | >800 ppm | 32 ppm | >800 ppm | 0.50 ppm | >800 ppm | 1.00 ppm | >800 ppm | 16 ppm | >800 ppm | 1.00 ppm | >800 ppm | 1.00 ppm | >800 ppm | 32 ppm | >800 ppm | 8 ppm |
